Legend:
Assay in all cases: relative viability (nuclei count vs DMSO), 5 days (fraction); higher = more cells survive
[1] = compound: CC1=CC=C(C=C1)C(=O)CN2C3=C(CCCC3)SC2=N [Pifithrin_alpha] + Cc1cc(Nc2cc(N3CCN(C)CC3)nc(Sc3ccc(NC(=O)C4CC4)cc3)n2)n[nH]1 [Tozasertib] (partner 0.1 µM)
Procedure, shortened: (§1)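 Values are medians from duplicate plates. Each reflects relative viability, defined as the nuclei count of treated wells over that of vehicle wells. Lung cancer cell lines in 1536-well plates were pin-tool dosed one day after seeding with one drug alone or with a fixed anchor-drug dose plus five library-drug doses (not always all listed) in √10 steps, then fixed, stained and imaged at 4× after 5 days.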

Bemcentinib + Pictilisib = compound: Nc1nc(Nc2ccc3c(c2)CC[C@@H](N2CCCC2)CC3)nn1-c1cc2c(nn1)-c1ccccc1CCC2 [Bemcentinib] + CS(=O)(=O)N1CCN(Cc2cc3nc(-c4cccc5[nH]ncc45)nc(N4CCOCC4)c3s2)CC1 [Pictilisib] (partner 1 µM)
Procedure, shortened: as §1

Bemcentinib + Bortezomib = compound: Nc1nc(Nc2ccc3c(c2)CC[C@@H](N2CCCC2)CC3)nn1-c1cc2c(nn1)-c1ccccc1CCC2 [Bemcentinib] + CC(C)C[C@H](NC(=O)[C@H](Cc1ccccc1)NC(=O)c1cnccn1)B(O)O [Bortezomib] (partner 0.002 µM)
Procedure, shortened: as §1

Bemcentinib + Olaparib = compound: Nc1nc(Nc2ccc3c(c2)CC[C@@H](N2CCCC2)CC3)nn1-c1cc2c(nn1)-c1ccccc1CCC2 [Bemcentinib] + O=C(c1cc(Cc2n[nH]c(=O)c3ccccc23)ccc1F)N1CCN(C(=O)C2CC2)CC1 [Olaparib] (partner 8 µM)
Procedure, shortened: as §1

Cell Line	relative viability ([1]; first compound 1 µM)	relative viability ([1]; first compound 3.162 µM)	relative viability ([1]; first compound 10 µM)	relative viability ([1]; first compound 100 µM)	relative viability (Bemcentinib + Pictilisib; first compound 0.04 µM)	relative viability (Bemcentinib + Pictilisib; first compound 0.1265 µM)	relative viability (Bemcentinib + Pictilisib; first compound 0.4 µM)	relative viability (Bemcentinib + Pictilisib; first compound 1.265 µM)	relative viability (Bemcentinib + Pictilisib; first compound 4 µM)	relative viability (Bemcentinib + Bortezomib; first compound 0.04 µM)	relative viability (Bemcentinib + Bortezomib; first compound 0.1265 µM)	relative viability (Bemcentinib + Bortezomib; first compound 0.4 µM)	relative viability (Bemcentinib + Bortezomib; first compound 1.265 µM)	relative viability (Bemcentinib + Bortezomib; first compound 4 µM)	relative viability (Bemcentinib + Olaparib; first compound 0.04 µM)	relative viability (Bemcentinib + Olaparib; first compound 0.1265 µM)	relative viability (Bemcentinib + Olaparib; first compound 0.4 µM)	relative viability (Bemcentinib + Olaparib; first compound 1.265 µM)	relative viability (Bemcentinib + Olaparib; first compound 4 µM)	relative viability ([1]; first compound 31.62 µM)
NCI-H520	0.446	0.438	0.364	0.421	0.289	0.309	0.316	0.288	0.406	0.517	0.472	0.711	0.591	0.61	0.394	0.335	0.343	0.387	0.415	–
COR-L23	0.168	0.15	0.152	0.13	0.843	0.978	1.03	0.953	0.927	1.16	1.14	1.17	1.27	1.24	0.38	0.314	0.371	0.328	0.344	–
NCI-H2023	0.247	0.177	0.209	0.167	0.205	0.261	0.239	0.276	0.248	0.938	1.03	1.04	1.15	1.12	0.461	0.487	0.463	0.511	0.501	–
NCI-H1650	–	0.346	0.22	0.31	0.526	0.519	0.548	0.631	0.731	0.199	0.209	0.199	0.192	0.225	0.692	0.822	0.818	0.77	0.739	0.261
RERF-LC-KJ	0.498	0.412	0.308	0.289	0.535	0.575	0.652	0.562	0.572	1.1	1.29	1.3	1.21	1.09	0.873	0.928	0.896	0.976	0.782	0.253
NCI-H1734	0.28	0.259	0.238	0.245	0.461	0.487	0.486	0.48	0.45	0.935	0.871	1.2	0.953	0.947	0.634	0.754	0.649	0.603	0.642	0.262
NCI-H2087	0.245	0.422	0.206	0.152	0.813	0.973	1.03	0.813	0.89	0.736	1.09	0.994	0.61	0.769	0.638	0.65	0.616	0.614	0.644	–
EKVX	0.532	–	0.349	0.349	0.404	0.474	0.503	0.436	0.451	1.02	1.36	1.03	0.996	0.995	0.88	0.852	0.829	1.09	0.939	0.245
NCI-H1915	0.454	0.465	–	0.399	0.893	1.04	0.975	0.962	0.943	0.731	1.02	1.04	0.853	1.05	0.282	0.242	0.243	0.232	0.26	–
NCI-H3122	0.438	0.325	0.375	0.44	0.234	0.62	0.579	0.699	0.646	0.911	1.04	0.991	0.937	0.994	0.651	0.652	0.637	0.678	0.68	–
BEN	–	0.684	0.534	0.514	0.551	0.6	0.631	0.564	0.591	0.56	0.899	0.891	0.506	0.776	1.05	1.25	1.02	1.19	1.18	0.443
201T	0.991	0.679	0.729	0.638	0.689	0.694	0.763	0.712	0.748	0.864	1.15	1.12	0.978	1.1	0.872	0.874	0.934	0.897	0.818	0.57
NCI-H1666	0.606	0.596	0.474	0.515	0.313	0.596	0.427	0.43	0.55	0.649	0.937	0.854	0.895	0.759	0.742	0.887	0.731	0.713	0.713	0.507
NCI-H1993	0.586	0.636	0.573	0.559	0.833	0.853	0.834	0.904	0.777	1.12	1.17	1.14	0.921	1.2	1.05	1.23	1	1.15	1.16	0.529
CAL-12T	0.348	0.22	0.234	0.226	0.302	0.569	0.532	0.347	0.364	0.977	0.936	0.953	0.736	0.908	0.705	0.751	0.716	0.77	0.698	–
NCI-H460	0.397	0.485	0.0522	0.126	0.252	0.267	0.412	0.26	0.374	1.24	1.54	1.66	1.25	1.15	0.433	0.407	0.555	0.52	0.473	0.0525

Reference: the supplement of paper PMC10307832
